# Key:
# [1] = system: Normal plasma pool; assay: Thrombin time assay (Roche Thrombin Time Reagent on Roche cobas t 711), spiked normal plasma pool; conditions: for effect of spiked amount on clotting time of thrombin time (TT) assay: increasing concentrations, normal plasma sample; for TT result: normal plasma pool
# [2] = system: Normal plasma pool; assay: APTT assay (Roche APTT LS on Roche cobas t 711 coagulation analyzer), spiked normal plasma pool; conditions: for effect of spiked amount on clotting time of APTT assay: increasing concentrations, normal plasma sample; for APTT result: normal plasma pool
# [3] = system: pathological plasma pool; assay: Thrombin time assay (Roche Thrombin Time Reagent on Roche cobas t 711), spiked pathological plasma pool; conditions: for TT result: pathological plasma pool
# Protocol: [The source words this procedure for another target and reports this target under the same test.] A TT result of 19 s would result in a conjugated bilirubin concentration x=4.95 mg/dL. The calibration curve shown above was generated by spiking increasing amount of bilic to a normal plasma sample.
compound,measurement,setting,value
conjugated bilirubin,effect of spiked amount on clotting time of thrombin time (TT) assay,[1],systematically prolonged
same,TT result,[1]; spiked at 1.00 mg/dL,16.70 s
same,TT result,[1]; spiked at 2.00 mg/dL,17.40 s
same,TT result,[1]; spiked at 3.00 mg/dL,17.80 s
same,TT result,[1]; spiked at 4.00 mg/dL,18.50 s
same,TT result,[1]; spiked at 5.00 mg/dL,19.20 s
same,TT result,[1]; spiked at 6.00 mg/dL,19.50 s
same,TT result,[1]; spiked at 7.00 mg/dL,20.00 s
same,TT result,[1]; spiked at 8.00 mg/dL,20.50 s
same,TT result,[1]; spiked at 9.00 mg/dL,21.30 s
same,TT result,[1]; spiked at 10.00 mg/dL,21.70 s
same,effect of spiked amount on clotting time of APTT assay,[2],systematically prolonged
same,APTT result,[2]; spiked at 2.00 mg/dL,27.90 s
same,APTT result,[2]; spiked at 4.00 mg/dL,28.40 s
same,APTT result,[2]; spiked at 6.00 mg/dL,29.00 s
same,APTT result,[2]; spiked at 8.00 mg/dL,29.70 s
same,APTT result,[2]; spiked at 9.00 mg/dL,30.00 s
same,APTT result,[2]; spiked at 10.00 mg/dL,30.50 s
same,APTT result,[2]; spiked at 11.00 mg/dL,30.70 s
same,APTT result,[2]; spiked at 12.00 mg/dL,31.10 s
same,APTT result,[2]; spiked at 13.00 mg/dL,31.50 s
same,APTT result,[2]; spiked at 15.00 mg/dL,32.20 s
C=CC1=C(C)/C(=C/c2[nH]c(Cc3[nH]c(/C=C4\NC(=O)C(C)=C4C=C)c(C)c3CCC(=O)O)c(CCC(=O)O)c2C)NC1=O [unconjugated bilirubin],effect of spiked amount on clotting time of thrombin time (TT) assay,[1],does not seem to influence thrombin time results
same,TT result,[1]; spiked at 6.60 mg/dL,16.30 s
same,TT result,[1]; spiked at 13.20 mg/dL,16.30 s
same,TT result,[1]; spiked at 19.80 mg/dL,16.00 s
same,TT result,[1]; spiked at 26.40 mg/dL,16.40 s
same,TT result,[1]; spiked at 33.00 mg/dL,16.40 s
same,TT result,[1]; spiked at 39.60 mg/dL,16.40 s
same,TT result,[1]; spiked at 46.20 mg/dL,16.40 s
same,TT result,[1]; spiked at 52.80 mg/dL,16.60 s
same,TT result,[1]; spiked at 59.40 mg/dL,16.50 s
same,TT result,[1]; spiked at 66.00 mg/dL,16.60 s
same,effect of spiked amount on clotting time of APTT assay,[2],influences APTT results only marginally
same,APTT result,[2]; spiked at 6.60 mg/dL,30.70 s
same,APTT result,[2]; spiked at 13.20 mg/dL,31.10 s
same,APTT result,[2]; spiked at 19.80 mg/dL,30.80 s
same,APTT result,[2]; spiked at 26.40 mg/dL,30.80 s
same,APTT result,[2]; spiked at 33.00 mg/dL,30.70 s
same,APTT result,[2]; spiked at 39.60 mg/dL,30.50 s
same,APTT result,[2]; spiked at 46.20 mg/dL,30.50 s
same,APTT result,[2]; spiked at 52.80 mg/dL,30.30 s
same,APTT result,[2]; spiked at 59.40 mg/dL,30.60 s
same,APTT result,[2]; spiked at 66.00 mg/dL,30.30 s
hemoglobin,effect of spiked amount on clotting time of thrombin time (TT) assay,"[3]; increasing concentrations, pathological plasma sample",systematically shortened
same,TT result,[3]; spiked at 130.00 mg/dL,38.50 s
same,TT result,[3]; spiked at 260.00 mg/dL,38.10 s
same,TT result,[3]; spiked at 390.00 mg/dL,37.60 s
same,TT result,[3]; spiked at 520.00 mg/dL,36.70 s
same,TT result,[3]; spiked at 650.00 mg/dL,36.30 s
same,TT result,[3]; spiked at 780.00 mg/dL,35.70 s
same,TT result,[3]; spiked at 910.00 mg/dL,35.00 s
same,TT result,[3]; spiked at 1040.00 mg/dL,34.40 s
same,TT result,[3]; spiked at 1170.00 mg/dL,33.60 s
same,TT result,[3]; spiked at 1300.00 mg/dL,33.40 s
same,effect of spiked amount on clotting time of APTT assay,[2],systematically shortened
same,APTT result,[2]; spiked at 130.00 mg/dL,28.40 s
same,APTT result,[2]; spiked at 260.00 mg/dL,28.10 s
same,APTT result,[2]; spiked at 390.00 mg/dL,27.90 s
same,APTT result,[2]; spiked at 520.00 mg/dL,27.60 s
same,APTT result,[2]; spiked at 650.00 mg/dL,27.40 s
same,APTT result,[2]; spiked at 780.00 mg/dL,27.20 s
same,APTT result,[2]; spiked at 910.00 mg/dL,26.70 s
same,APTT result,[2]; spiked at 1040.00 mg/dL,26.30 s
same,APTT result,[2]; spiked at 1170.00 mg/dL,26.20 s
same,APTT result,[2]; spiked at 1300.00 mg/dL,25.70 s

# Reference: patent US20190276872A1, “DETERMINATION OF INTERFERENTS IN A SAMPLE” (Roche Diagnostics Operations, Inc., priority 2016, published 2019)
